pIC50: −log10 of the molar value. Read-outs that look alike come from different tables or passages of the source.
What was measured:
[1] = Maximum Tolerated Dose, Sprague-Dawley rats; conditions: rat, in vivo, oral, ascending dose
Method: The acute safety of the compounds was assessed in rats in order to enable determination of the maximum tolerated dose (MTD), an indication of a compound's safety in animals. The higher the MTD, the greater is the potential safety of the compound being tested.
Two male and two female Sprague-Dawley rats, aged 8-12 weeks, were dosed at each dose level in an ascending dose study design. The test compounds were administered orally as a suspension formulated in 0.5% carboxymethylcellulose (CMC)/0.1% Tween-80 in a dose volume of 10 mL/kg. Animals were given free access to food throughout the study.
Animals were observed on at least two occasions during the first hour following dosing, approximately 30 minutes apart, and thereafter at hourly intervals for the remainder of the dosing day for at least 4 hours. […] The nature and severity, where appropriate, of the clinical signs and time were recorded at each observation. Observations included changes in the skin, fur, eyes, and mucous membranes, and also the respiratory, circulatory, autonomic, and central nervous system, as well as somatomotor activity and behaviour pattern. Particular attention was directed towards the observation of tremors, convulsions, salivation, diarrhoea, lethargy, sleep, and coma.
At the completion of the study, the results were expressed as the maximum tolerated dose for each compound, this being the highest of each without unacceptable toxicity.
The maximum dose without unacceptable side-effects was determined to be the MTD (expressed in mg/kg).

hERG ion channel = molecular target: T1, hERG ion channel (Homo sapiens, UniProt Q12809); experiment: hERG Ion Channel Assay (Q-patch, hERG-CHO cells); assay type: cell-based; conditions: hERG tail current, hERG-CHO cells, Q-patch; read-out: IC50 (1)
T1 construct: expressed in transfected cells; host or cells: Chinese Hamster Ovary cells (hERG-CHO), stably transfected
T1 sequence (Q12809 whole entry): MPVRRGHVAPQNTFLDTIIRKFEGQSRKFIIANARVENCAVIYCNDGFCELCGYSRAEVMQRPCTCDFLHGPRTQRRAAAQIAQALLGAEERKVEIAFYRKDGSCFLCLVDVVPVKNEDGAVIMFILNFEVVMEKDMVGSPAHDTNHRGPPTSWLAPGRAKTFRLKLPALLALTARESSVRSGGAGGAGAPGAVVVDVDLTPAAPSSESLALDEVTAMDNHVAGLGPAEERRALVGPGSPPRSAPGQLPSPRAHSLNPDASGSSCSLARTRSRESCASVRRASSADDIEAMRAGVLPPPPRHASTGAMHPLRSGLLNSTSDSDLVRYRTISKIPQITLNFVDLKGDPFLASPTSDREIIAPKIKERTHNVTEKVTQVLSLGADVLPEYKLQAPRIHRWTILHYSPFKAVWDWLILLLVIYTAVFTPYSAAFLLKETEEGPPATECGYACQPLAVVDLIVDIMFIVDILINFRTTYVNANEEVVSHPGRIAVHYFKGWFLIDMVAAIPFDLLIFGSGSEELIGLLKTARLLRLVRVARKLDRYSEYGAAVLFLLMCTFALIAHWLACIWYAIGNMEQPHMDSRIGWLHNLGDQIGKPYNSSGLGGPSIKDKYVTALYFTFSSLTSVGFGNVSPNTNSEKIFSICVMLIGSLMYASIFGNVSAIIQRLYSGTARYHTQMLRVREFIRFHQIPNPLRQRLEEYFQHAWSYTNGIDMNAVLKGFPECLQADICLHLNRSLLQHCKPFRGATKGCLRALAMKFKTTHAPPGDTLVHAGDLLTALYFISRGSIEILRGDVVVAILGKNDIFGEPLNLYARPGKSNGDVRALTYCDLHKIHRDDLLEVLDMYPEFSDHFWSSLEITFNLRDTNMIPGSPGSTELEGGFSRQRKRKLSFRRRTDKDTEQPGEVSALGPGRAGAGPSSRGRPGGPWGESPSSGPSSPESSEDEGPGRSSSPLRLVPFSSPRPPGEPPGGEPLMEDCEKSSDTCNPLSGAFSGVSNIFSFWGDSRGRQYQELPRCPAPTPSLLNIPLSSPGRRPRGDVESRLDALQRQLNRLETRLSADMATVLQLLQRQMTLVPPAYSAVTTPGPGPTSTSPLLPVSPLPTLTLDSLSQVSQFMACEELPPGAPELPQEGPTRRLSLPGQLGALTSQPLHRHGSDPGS
How it was run: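 Automated whole-cell Q-patch on hERG-CHO cells (held at 30° C for 24–48 h beforehand), −80 mV holding, +20 mV for 2 s then −40 mV for 1 s to elicit tail current every 5 s. Cumulative rising concentrations, 5 min each; percent tail-current inhibition fitted to three-parameter logistic for IC50.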

[2] = test system: pristane-induced arthritis; experiment: Rat Pristane-Induced Arthritis Study; assay type: in vivo; conditions: for % inhibition of disease: once daily for 28 days; for Tolerability during extended dosing: rat pristane-induced arthritis study, oral, up to 28 days
Method: Female Lewis rats were used for all procedures. Animals were housed in groups of 5, and were maintained at 21° C.±2° C. on a 12-hour light/dark cycle with food and water ad libitum. Arthritis was induced by the administration of 0.3 mL pristane intra-dermally at the base of the tail. The rats started to develop signs and symptoms of arthritis approximately seven days after the pristane injection.
For macroscopic assessment of arthritis, the following signs were monitored in each paw of each mouse three times per week and summed to generate the Arthritic Index (AI) (the maximum AI for one animal is 16): • 0=no visible effects of arthritis. • 1=oedema and/or erythema of 1 digit. • 2=oedema and/or erythema of 2 digits. • 3=oedema and/or erythema of more than 2 digits. • 4=severe arthritis of entire paw and digits including limb deformation and ankylosis of the joint.
Animals were sorted into treatment groups prior to pristane administration and dosed once daily for 28 days with test compound at doses of 3 and 10 mg/kg/day by oral gavage, or by intraperitoneal injection at a dose of 0.05 mg/kg for the positive control, methotrexate. After completion of the experiment, the rats were sacrificed.
The data were analysed by generating an average of the arthritic index across each treatment group. The mean arthritic index was then compared to the arthritic index of control (untreated) animals using the following formula to generate a percentage inhibition of disease.

[3] = female Sprague-Dawley rats, read-out: Maximum tolerated dose, Females
[4] = male Sprague-Dawley rats, read-out: Maximum tolerated dose, Males

SMILES	MTD [1, 3] [mg/kg]	MTD [1, 4] [mg/kg]	pIC50 (hERG ion channel)	% inhibition of disease ([2]; 3 mg/kg/day oral gavage) [%]	Tolerability during extended dosing [2]	% inhibition of disease ([2]; 10 mg/kg/day oral gavage) [%]	Efficacy compared with positive control methotrexate ([2]; methotrexate 0.05 mg/kg intraperitoneal)
Cc1cc(S(=O)(=O)NC2CCC(C)(O)CC2)ccc1-c1ccc(F)cc1F (single isomer, unassigned) [REF001, reference compound]	7.5	10	–	–	–	–	–
Cc1cc(S(=O)(=O)N[C@H]2CC[C@H](O)CC2)ccc1-c1ccc(F)cc1F [ABD735]	20	10	–	–	–	–	–
C[C@]1(O)CC[C@@H](NS(=O)(=O)c2ccc(-c3ccc(F)cc3F)cc2)CC1 [ABD899, reference compound]	30	30	5.54	21	poorly tolerated	–	–
C[C@]1(O)CC[C@H](NS(=O)(=O)c2ccc(-c3ccc(Cl)cc3C#N)cc2)CC1 [HMC-C-01-A, 4′-Chloro-2′-cyano-N-((1r,4r)-4-hydroxy-4-methylcyclohexyl)biphenyl-4-sulfonamide]	70	70	4.71	40	tolerated well	67	equivalent to that of the marketed first-line therapy for rheumatoid arthritis, methotrexate
C[C@]1(O)CC[C@H](NS(=O)(=O)c2ccc(-c3ccc(F)cc3C(F)(F)F)cc2)CC1 [HMC-C-02-A, 4′-Fluoro-N-((1r,4r)-4-hydroxy-4-methylcyclohexyl)-2′-(trifluoromethyl)biphenyl-4-sulfonamide]	> 200	> 200	4.60	–	–	–	–
C[C@]1(O)CC[C@H](NS(=O)(=O)c2ccc(-c3c(F)cc(F)cc3F)cc2)CC1 [HMC-C-03-A, 2′,4′,6′-Trifluoro-N-((1r,4r)-4-hydroxy-4-methylcyclohexyl)biphenyl-4-sulfonamide]	30	30	< 4.52	–	–	–	–
C[C@]1(O)CC[C@H](NS(=O)(=O)c2ccc(-c3ncc(F)cc3F)c(F)c2)CC1 [HMC-N-01-A, 4-(3,5-Difluoropyridin-2-yl)-3-fluoro-N-((1r,4r)-4-hydroxy-4-methylcyclohexyl)benzenesulfonamide]	80	80	3.74	39	tolerated well	60	–
C[C@]1(O)CC[C@H](NS(=O)(=O)c2ccc(-c3ncc(F)cc3F)cc2)CC1 [HMC-N-02-A, 4-(3,5-Difluoropyridin-2-yl)-N-((1r,4r)-4-hydroxy-4-methylcyclohexyl)benzenesulfonamide]	> 200	> 200	3.64	–	–	–	–
C[C@]1(O)CC[C@H](NS(=O)(=O)c2ccc(-c3ncc(Cl)cc3Cl)cc2)CC1 [HMC-N-03-A, 4-(3,5-Dichloropyridin-2-yl)-N-((1r,4r)-4-hydroxy-4-methylcyclohexyl)benzenesulfonamide]	50	50	< 4.52	–	–	–	–
C[C@]1(O)CC[C@H](NS(=O)(=O)c2ccc(-c3ncc(Cl)cc3Cl)c(F)c2)CC1 [HMC-N-04-A, 4-(3,5-Dichloropyridin-2-yl)-3-fluoro-N-((1r,4r)-4-hydroxy-4-methylcyclohexyl)benzenesulfonamide]	–	–	< 4.52	–	–	–	–

From patent US9624167B2, “N-(4-hydroxy-4-methyl-cyclohexyl)-4-phenyl-benzenesulfonamides and N-(4-hydroxy-4-methyl-cyclohexyl)-4-(2-pyridyl)benzenesulfonamides and their therapeutic use” (PIMCO 2664 LIMITED, priority 2013, dated 2017)
